# Test results: patent US5049380A, “Anti-allergic extract” (Bar-Ilan University, priority 1989, dated 1991)
# System: potato 5-lipoxygenase
# Experiment: Inhibition of potato 5-lipoxygenase, arachidonic acid oxidation, polarographic
# Assay type: biochemical
# Details: caffeic acid 0.33 mM final concentration, AA 313 2 mg.
# Protocol: A reaction mixture containing 1050 units potato 5-lipoxygenase was subjected to the action of the known inhibitor caffeic acid as well as to 2 mg AA 313. Enzyme activity was tested by the ability of a sample of the reaction mixture to oxidize arachidonic acid (concentration of 0.33 mM). […] Enzyme activity was estimated polarographically.
smiles,measurement,setting,value
O=C(O)/C=C/c1ccc(O)c(O)c1 [caffeic acid],% Inhibition,,64%
same,Enzyme activity (units),control 1050 units,375 units
